The target of one assay is T1, AR N-C interaction (Homo sapiens, UniProt P10275).
T1 construct: pCDNA3-hAR-C (residues 556–919); expressed in transfected cells; host or cells: PC-3
T1 sequence (P10275 556-919): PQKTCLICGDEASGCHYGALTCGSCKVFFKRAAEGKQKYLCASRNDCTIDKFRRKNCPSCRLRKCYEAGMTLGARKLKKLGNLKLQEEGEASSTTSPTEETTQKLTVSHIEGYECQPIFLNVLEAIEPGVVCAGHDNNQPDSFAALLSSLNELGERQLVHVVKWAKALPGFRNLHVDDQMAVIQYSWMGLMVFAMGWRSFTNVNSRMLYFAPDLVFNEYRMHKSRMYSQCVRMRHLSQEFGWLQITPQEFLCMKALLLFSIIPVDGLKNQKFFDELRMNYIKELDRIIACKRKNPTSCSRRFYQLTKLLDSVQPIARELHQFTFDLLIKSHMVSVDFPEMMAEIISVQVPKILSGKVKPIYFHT
The assay can be described thus: AR N-C interaction reporter assay in PC-3 cells. As to conditions: 10 nM DHT, Figure 6A. It counts as cell-based. Here is the method:
(§1) Figure 6 Mechanism underlying suppression of AR-related functions by oxadiazole derivatives (A–C) Transcriptional activity in reporter assays. PC-3 cells in 24-well plates were transfected as indicated below. After incubation for 16 h, cells were treated with ethanol, 10 nM DHT, or 0.01–10 μM HWC-489 or LHJ-647 for an additional 16 h. Luciferase activity in cell lysates was determined and normalized to protein concentrations. Relative luciferase activity was calculated using the luciferase reporter assay system. (A) PC-3 cells were co-transfected with 350 ng pCDNA3-flag-hAR-N (residues 1–506), 350 ng pCDNA3-hAR-C (residues 556–919), and 300 ng MMTV-Luc plasmids. (B) PC-3 cells were co-transfected with 350 ng GAL4-DBD-3-18, 350 ng pCMX-VP16-AR, and 300 ng pG5-Luc plasmids. (C) PC-3 cells were transfected with 350 ng GAL4-DBD-ARA54C, 350 ng VP16-AR, and 300 ng pG5-Luc plasmids. (D) LHJ-647 promotes AR protein degradation.
On the technique in general: In a reporter assay the amount or activity of a reporter protein is the signal.

In the next assay the target is T2, AR protein (Homo sapiens, UniProt P10275).
T2 sequence (P10275 1-920): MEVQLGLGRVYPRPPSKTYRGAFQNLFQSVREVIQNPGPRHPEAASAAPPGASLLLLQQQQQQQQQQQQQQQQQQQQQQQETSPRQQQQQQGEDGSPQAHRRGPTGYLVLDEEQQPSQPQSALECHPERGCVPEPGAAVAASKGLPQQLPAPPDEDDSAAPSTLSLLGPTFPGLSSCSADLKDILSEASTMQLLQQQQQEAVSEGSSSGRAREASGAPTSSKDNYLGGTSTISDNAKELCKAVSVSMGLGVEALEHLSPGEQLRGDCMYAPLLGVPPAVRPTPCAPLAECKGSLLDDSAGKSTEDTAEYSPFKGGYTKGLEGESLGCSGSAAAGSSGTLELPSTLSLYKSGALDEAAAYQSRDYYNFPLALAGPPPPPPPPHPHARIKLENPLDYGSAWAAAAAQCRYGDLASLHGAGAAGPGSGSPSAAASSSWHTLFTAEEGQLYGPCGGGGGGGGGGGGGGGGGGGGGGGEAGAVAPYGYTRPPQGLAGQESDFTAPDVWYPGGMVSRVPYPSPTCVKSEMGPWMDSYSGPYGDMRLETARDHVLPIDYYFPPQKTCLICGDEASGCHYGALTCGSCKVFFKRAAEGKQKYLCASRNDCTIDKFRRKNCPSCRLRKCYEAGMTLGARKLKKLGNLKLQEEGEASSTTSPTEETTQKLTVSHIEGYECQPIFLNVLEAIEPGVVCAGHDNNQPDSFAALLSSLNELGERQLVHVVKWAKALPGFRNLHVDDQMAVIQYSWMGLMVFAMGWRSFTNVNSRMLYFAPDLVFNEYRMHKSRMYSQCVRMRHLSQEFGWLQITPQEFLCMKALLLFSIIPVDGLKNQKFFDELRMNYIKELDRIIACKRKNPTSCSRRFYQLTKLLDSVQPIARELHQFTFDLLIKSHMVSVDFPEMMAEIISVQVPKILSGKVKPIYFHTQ
The assay can be described thus: AR protein degradation. The assay is classed as cell-based. As to conditions: Figure 6D. The protocol: as §1

Each structure is given as a SMILES string.

Turning to `Cc1ccc(-c2nnc(Nc3ccccc3)o2)cc1` [HWC-489], the “concentration range of significant suppression of AR N-C interaction” value on AR N-C interaction fell in the range of 0.1 to 1 µM. Regarding `COc1cccc(Nc2nnc(-c3ccc(N(C)C)cc3)o2)c1` [LHJ-647], at AR N-C interaction, the “concentration range of significant suppression of AR N-C interaction” value lay in the range of 0.1 to 1 µM. Besides, on AR protein, the AR protein degradation entry is listed as “promoted AR protein degradation”.

Values taken from publication PMC5642495, “Characterization of a novel androgen receptor (AR) coregulator RIPK1 and related chemicals that suppress AR-mediated prostate cancer growth via peptide and chemical screening” (Oncotarget, 2017).
